US8759295B2, “Peptide-peptidase inhibitor conjugates and methods of using same” (Amylin Pharmaceuticals, LLC, priority 2006, dated 2014)
Starred links: 1 amine or outer side, 2 acyl side, 3 side chain; linkers in the order of their positions; H or OH if unused. Non-standard residues stand in square brackets, D forms with d. No end group written: not given here. *: point of attachment. Pyrrolidine(2S-CN) = N#C[C@@H]1CCCN1*; εLys = N[C@@H](CCCCN[*:1])C(=O)[*:2]; pGlu = O=C1CC[C@@H](C(=O)O)N1; AEEA = NCCOCCOCC(=O)O; βAla = NCCC(=O)O

Experiments:
[1] = system: NIH/Swiss mice; experiment: Oral glucose tolerance test (OGTT), glucose lowering; settings: 30 nM/kg
[2] = biological target: T1, human GIP receptor (HEK-GIPR membranes) (Homo sapiens, UniProt P48546); experiment: GIP receptor binding displacement assay (RBA); settings: 10 nM conjugate, 30 pM 125I-GIP; for inhibition at 0.01 µM: read-out: GIP RBA % inhibition at 10 nM
T1 construct: expressed in transfected cells
T1 sequence (P48546 22-466): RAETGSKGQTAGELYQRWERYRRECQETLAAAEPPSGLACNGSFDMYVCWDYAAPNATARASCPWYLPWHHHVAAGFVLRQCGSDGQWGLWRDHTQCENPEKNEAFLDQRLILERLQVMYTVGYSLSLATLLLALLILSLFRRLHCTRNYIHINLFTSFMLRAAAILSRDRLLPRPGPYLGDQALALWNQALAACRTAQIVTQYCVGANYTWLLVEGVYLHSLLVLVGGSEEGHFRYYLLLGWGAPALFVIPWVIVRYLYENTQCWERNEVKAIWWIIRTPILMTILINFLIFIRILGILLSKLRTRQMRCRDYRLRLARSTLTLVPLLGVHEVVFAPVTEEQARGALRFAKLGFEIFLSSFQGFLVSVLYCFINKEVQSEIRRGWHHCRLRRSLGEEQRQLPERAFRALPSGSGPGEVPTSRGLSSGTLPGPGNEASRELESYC
Description: Membrane fractions were prepared from confluent cell cultures of HEK-GIPR, snap frozen, and stored at −80° C. until use. […] Reactions were allowed to proceed to equilibrium for 90 minutes at room temperature with constant shaking. The reaction mixtures were then filtered through 96-well glass fiber filter plates separating bound and unbound fractions of radioligand.

[3] = biological target: Recombinant DPP-IV (Homo sapiens, UniProt P27487); experiment: DPP-IV inhibition assay with chromogenic substrate; format: biochemical; set-up: purchased Chemicon International, Inc., Temecula, Calif; settings: mean SEM of at least three determinations
Chain of Recombinant DPP-IV (P27487 whole entry, species assumed): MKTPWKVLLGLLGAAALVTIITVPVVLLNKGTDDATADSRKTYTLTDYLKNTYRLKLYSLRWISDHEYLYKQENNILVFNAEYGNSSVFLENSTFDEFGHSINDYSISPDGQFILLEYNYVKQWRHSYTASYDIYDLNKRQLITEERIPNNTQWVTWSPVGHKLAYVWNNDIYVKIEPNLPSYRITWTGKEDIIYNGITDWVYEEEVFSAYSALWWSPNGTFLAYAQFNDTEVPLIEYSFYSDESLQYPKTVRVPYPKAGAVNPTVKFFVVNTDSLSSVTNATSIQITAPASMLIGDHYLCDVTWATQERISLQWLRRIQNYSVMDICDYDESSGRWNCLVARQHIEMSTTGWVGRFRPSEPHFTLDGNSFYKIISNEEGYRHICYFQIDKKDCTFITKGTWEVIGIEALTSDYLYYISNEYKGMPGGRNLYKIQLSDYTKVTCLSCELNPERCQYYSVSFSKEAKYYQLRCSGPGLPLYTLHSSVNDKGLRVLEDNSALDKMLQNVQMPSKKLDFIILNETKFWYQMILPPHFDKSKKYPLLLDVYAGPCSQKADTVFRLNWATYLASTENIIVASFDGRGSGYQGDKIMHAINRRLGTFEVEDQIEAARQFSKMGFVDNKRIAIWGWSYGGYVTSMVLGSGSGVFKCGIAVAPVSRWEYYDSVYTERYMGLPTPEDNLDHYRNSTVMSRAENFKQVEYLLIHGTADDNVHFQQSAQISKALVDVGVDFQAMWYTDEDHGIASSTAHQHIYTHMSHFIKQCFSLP
Description: The reactions were initiated by adding 1 μl DPP-IV enzyme (0.05 mU) into each well and the absorbance at 410 nm was measured with 20-sec intervals over a 30-min period using a SpectraMax plate reader (Molecular Devices, Corp., Sunnyvale, Calif.). The velocities of each reaction at different inhibitor concentrations were calculated and the reciprocal velocities were plotted against inhibitor concentrations in Dixon graphs. The IC50 values of reaction velocities were calculated through fitting the plots with linear equation.
The IC50 (nM) values in Table 5 are expressed as the mean SEM of at least three independent determinations.

Compound	OGTT % maximal decrease [1]	IC50 [3]	also measured
CC[C@H](C)[C@H](NC(=O)[C@H](CO)NC(=O)[C@H](Cc1ccc(O)cc1)NC(=O)[C@H](CC(=O)O)NC(=O)[C@H](CO)NC(=O)[C@@H](NC(=O)[C@H](Cc1ccccc1)NC(=O)[C@@H](NC(=O)CNC(=O)[C@H](CCC(=O)O)NC(=O)[C@H](C)NC(=O)[C@@H](N)Cc1ccc(O)cc1)[C@@H](C)O)[C@@H](C)CC)C(=O)N[C@@H](C)C(=O)N[C@@H](CCSC)C(=O)N[C@@H](CC(=O)O)C(=O)N[C@@H](CCCCN)C(=O)N[C@H](C(=O)N[C@@H](Cc1c[nH]cn1)C(=O)N[C@@H](CCC(N)=O)C(=O)N[C@@H](CCC(N)=O)C(=O)N[C@@H](CC(=O)O)C(=O)N[C@@H](Cc1ccccc1)C(=O)N[C@H](C(=O)N[C@@H](CC(N)=O)C(=O)N[C@@H](Cc1c[nH]c2ccccc12)C(=O)N[C@@H](CC(C)C)C(=O)N[C@@H](CC(C)C)C(=O)N[C@@H](C)C(=O)N[C@@H](CCC(N)=O)C(=O)N[C@@H](CCCCN)C(=O)NCCOCCOCC(=O)NCCOCCOCC(=O)NCCCC[C@H](N)C(=O)N1CCC[C@H]1C#N)C(C)C)[C@@H](C)CC [GIP(1-30)-Ado-Ado-Lys-N-ε-(2-(S)-cyano pyrrolidyl)]	−17%		inhibition at 0.01 µM [2]: 97%
CC[C@H](C)[C@H](NC(=O)[C@H](CO)NC(=O)[C@H](Cc1ccc(O)cc1)NC(=O)[C@H](CC(=O)O)NC(=O)[C@H](CO)NC(=O)[C@@H](NC(=O)[C@H](Cc1ccccc1)NC(=O)[C@@H](NC(=O)CNC(=O)[C@H](CCC(=O)O)NC(=O)[C@H](C)NC(=O)[C@@H](N)Cc1ccc(O)cc1)[C@@H](C)O)[C@@H](C)CC)C(=O)N[C@@H](C)C(=O)N[C@@H](CCSC)C(=O)N[C@@H](CC(=O)O)C(=O)N[C@@H](CCCCN)C(=O)N[C@H](C(=O)N[C@@H](Cc1c[nH]cn1)C(=O)N[C@@H](CCC(N)=O)C(=O)N[C@@H](CCC(N)=O)C(=O)N[C@@H](CC(=O)O)C(=O)N[C@@H](Cc1ccccc1)C(=O)N[C@H](C(=O)N[C@@H](CC(N)=O)C(=O)N[C@@H](Cc1c[nH]c2ccccc12)C(=O)N[C@@H](CC(C)C)C(=O)N[C@@H](CC(C)C)C(=O)N[C@@H](C)C(=O)N[C@@H](CCC(N)=O)C(=O)N[C@@H](CCCCN)C(=O)NCCOCCOCC(=O)NCCCC[C@H](N)C(=O)N1CCC[C@H]1C#N)C(C)C)[C@@H](C)CC [GIP(1-30)-Ado-Lys-N-ε-(2-(S)-cyano pyrrolidyl)]		98 ± 5 nM	inhibition at 0.01 µM [2]: 99%
CC[C@H](C)[C@H](NC(=O)[C@H](CO)NC(=O)[C@H](Cc1ccc(O)cc1)NC(=O)[C@H](CC(=O)O)NC(=O)[C@H](CO)NC(=O)[C@@H](NC(=O)[C@H](Cc1ccccc1)NC(=O)[C@@H](NC(=O)CNC(=O)[C@H](CCC(=O)O)NC(=O)[C@H](C)NC(=O)[C@@H](N)Cc1ccc(O)cc1)[C@@H](C)O)[C@@H](C)CC)C(=O)N[C@@H](C)C(=O)N[C@@H](CCSC)C(=O)N[C@@H](CC(=O)O)C(=O)N[C@@H](CCCCN)C(=O)N[C@H](C(=O)N[C@@H](Cc1c[nH]cn1)C(=O)N[C@@H](CCC(N)=O)C(=O)N[C@@H](CCC(N)=O)C(=O)N[C@@H](CC(=O)O)C(=O)N[C@@H](Cc1ccccc1)C(=O)N[C@H](C(=O)N[C@@H](CC(N)=O)C(=O)N[C@@H](Cc1c[nH]c2ccccc12)C(=O)N[C@@H](CC(C)C)C(=O)N[C@@H](CC(C)C)C(=O)N[C@@H](C)C(=O)N[C@@H](CCC(N)=O)C(=O)N[C@@H](CCCCN)C(=O)N1CCC[C@H]1C(=O)N[C@@H](CO)C(=O)N[C@@H](CO)C(=O)NCC(=O)N[C@@H](C)C(=O)N1CCC[C@H]1C(=O)N1CCC[C@H]1C(=O)N1CCC[C@H]1C(=O)N[C@@H](CO)C(=O)NCCOCCOCC(=O)NCCOCCOCC(=O)NCCCC[C@H](N)C(=O)N1CCC[C@H]1C#N)C(C)C)[C@@H](C)CC [GIP(1-30)-exendin-4(31-39)-Ado-Ado-Lys-N-ε-(2-(S)-cyano pyrrolidyl)]	−22%		
CC[C@H](C)[C@H](NC(=O)[C@H](CO)NC(=O)[C@H](Cc1ccc(O)cc1)NC(=O)[C@H](CC(=O)O)NC(=O)[C@H](CO)NC(=O)[C@@H](NC(=O)[C@H](Cc1ccccc1)NC(=O)[C@@H](NC(=O)CNC(=O)[C@H](CCC(=O)O)NC(=O)[C@H](C)NC(=O)[C@H](Cc1ccc(O)cc1)NC(=O)COCCOCCNC(=O)COCCOCCNC(=O)CC[C@H](N)C(=O)N1CCC[C@H]1C#N)[C@@H](C)O)[C@@H](C)CC)C(=O)N[C@@H](C)C(=O)N[C@@H](CCSC)C(=O)N[C@@H](CC(=O)O)C(=O)N[C@@H](CCCCN)C(=O)N[C@H](C(=O)N[C@@H](Cc1c[nH]cn1)C(=O)N[C@@H](CCC(N)=O)C(=O)N[C@@H](CCC(N)=O)C(=O)N[C@@H](CC(=O)O)C(=O)N[C@@H](Cc1ccccc1)C(=O)N[C@H](C(=O)N[C@@H](CC(N)=O)C(=O)N[C@@H](Cc1c[nH]c2ccccc12)C(=O)N[C@@H](CC(C)C)C(=O)N[C@@H](CC(C)C)C(=O)N[C@@H](C)C(=O)N[C@@H](CCC(N)=O)C(=O)N[C@@H](CCCCN)C(=O)N1CCC[C@H]1C(=O)N[C@@H](CO)C(=O)N[C@@H](CO)C(=O)NCC(=O)N[C@@H](C)C(=O)N1CCC[C@H]1C(=O)N1CCC[C@H]1C(=O)N1CCC[C@H]1C(=O)N[C@@H](CO)C(=O)O)C(C)C)[C@@H](C)CC [N-(γ-L-Glu-2-(S)-cyanopyrrolidyl)-Ado-Ado) GIP(1-30)-exendin-4(31-39)]		110 ± 2 nM	
CC[C@H](C)[C@H](NC(=O)[C@H](CO)NC(=O)[C@H](Cc1ccc(O)cc1)NC(=O)[C@H](CC(=O)O)NC(=O)[C@H](CO)NC(=O)[C@@H](NC(=O)[C@H](Cc1ccccc1)NC(=O)[C@@H](NC(=O)CNC(=O)[C@H](CCC(=O)O)NC(=O)[C@@H](C)NC(=O)[C@@H](N)Cc1ccc(O)cc1)[C@@H](C)O)[C@@H](C)CC)C(=O)N[C@@H](C)C(=O)N[C@@H](CCSC)C(=O)N[C@@H](CC(=O)O)C(=O)N[C@@H](CCCCN)C(=O)N[C@H](C(=O)N[C@@H](Cc1c[nH]cn1)C(=O)N[C@@H](CCC(N)=O)C(=O)N[C@@H](CCC(N)=O)C(=O)N[C@@H](CC(=O)O)C(=O)N[C@@H](Cc1ccccc1)C(=O)N[C@H](C(=O)N[C@@H](CC(N)=O)C(=O)N[C@@H](Cc1c[nH]c2ccccc12)C(=O)N[C@@H](CC(C)C)C(=O)N[C@@H](CC(C)C)C(=O)N[C@@H](C)C(=O)N[C@@H](CCC(N)=O)C(=O)N[C@@H](CCCCN)C(=O)N1CCC[C@H]1C(=O)N[C@@H](CO)C(=O)N[C@@H](CO)C(=O)NCC(=O)N[C@@H](C)C(=O)N1CCC[C@H]1C(=O)N1CCC[C@H]1C(=O)N1CCC[C@H]1C(=O)N[C@@H](CO)C(=O)NCCOCCOCC(=O)NCCCC[C@H](N)C(=O)N1CCC[C@H]1C#N)C(C)C)[C@@H](C)CC [[D-Ala]GIP(1-30)-exendin-4(31-39)-Ado-Lys-N-ε-(2-(S)-cyano pyrrolidyl)]	−20%		
H-YAEGTFISDYSIALDKIHQQDFVNWLLAQKPSSGAPPPS[AEEA][εLys]-{Pyrrolidine(2S-CN)} [[Leu^14]GIP(1-30)-exendin-4(31-39)-Ado-Lys-N-ε-(2-(S)-cyano pyrrolidyl)]		82 ± 2 nM	
Lys^16 (N-ε-(Aun-Aun-(γ-L-Glu-2-(S)-cyano pyrrolidyl))) GIP(1-30)-exendin(31-39)	−3%		
[D-Ala^2, Leu^14]GIP-(1-30)-β-Ala-β-Ala-Lys(α-NH-Pyroglutamoyl)-Trp-Ala-Pro-COOH (peptide 1 Y[dA]EGTFISDYSIALDKIHQQDFVNWLLAQK[βAla][βAla]; peptide 2 [pGlu]KWAP-OH; not fully specified (some residues); printed as [D-Ala^2, Leu^14]GIP-(1-30)-β-Ala-β-Ala-Lys(α-NH-Pyroglutamoyl)-Trp-Ala-Pro-COOH; numbers in words are those of the source; also: linker at chain B 1 to a chain's C-terminus via βAla-βAla)	−12^ %		GIP RBA % inhibition at 10 nM [2]: 66%
